Measurements from patent US11660258B2, “Alcohol containing non-antimicrobial cleansing composition” (GOJO Industries, Inc., priority 2017, dated 2023).

Assays:
[1] = system: human skin; experiment: Forearm controlled application test (FCAT), transepidermal water loss (TEWL)
Protocol: (§1) Topical compositions were tested on skin samples for their ability to improve or maintain skin hydration and limit transepidermal water loss (TEWL). Measurement of the TEWL, expressed in grams per square meter and per hour, is used for studying the water barrier function of the human skin. The more perfect the skin protective coat, the higher the water content and the lower the TEWL. For each of the tests, a negative control was used, which included treatment with 8% SLS. An untreated skin sample was also tested for comparison. The tests were performed using the forearm controlled application test (FCAT) methodology. The various samples were applied to test sites on a forearm over the course of several days. On each day, up to six applications were made and the change in TEWL and hydration levels were recorded. The hydration levels were measured using a Corneometer® based on capacitance measurement of a dielectric medium. The Corneometer® measures the change in the dielectric constant due to skin surface hydration changing the capacitance of a precision capacitor. The measurement can detect even slight changes in the hydration level.
(§2) The compositions that were tested include the following, in weight %, based on the weight of the total composition: […]

[2] = system: human skin; experiment: Forearm controlled application test (FCAT), skin hydration by Corneometer
Protocol: as §1, §2

[3] = Example 2, wet and dry application, after 3 and 5 days of treatment

## CCCCCCCCCCCCOS(=O)(=O)[O-].[Na+] [negative control, sodium lauryl sulfate]
[1]; Example 1, FIG. 6, up to six applications per day over several days
  TEWL (change vs baseline): highest TEWL
[1]; [3]
  change in TEWL: significant TEWL
[2]; Example 1, FIG. 5, up to six applications per day over several days
  hydration levels (change vs baseline): lowest hydration levels
[2]; [3]
  change in hydration levels: significant reduction in hydration level
